The subject of data set [1] is Mus musculus. Briefly: Reduction of PTEN mRNA level in BALB/c mouse liver at 60 mg/kg, ip after 72 hrs. Type of data set: functional, organism-based. On the set-up: dose 60 mg/kg.
Data set [2] concerns Mus musculus. Briefly: Reduction of PTEN mRNA level in BALB/c mouse liver at 37 mg/kg, ip after 72 hrs. Type of data set: functional, organism-based. Details: dose 37 mg/kg.
Data set [3] concerns Mus musculus. Briefly: Hepatotoxicity in BALB/c mouse assessed as increase in liver ALT level at 60 mg/kg, ip after 72 hrs. Type of data set: toxicity, organism-based. On the set-up: dose 60 mg/kg, route intraperitoneal. To be noted: in vivo.

Structures are written as SMILES. The source made the active and inactive calls. The rule behind the calls is not given here.

On to `Cc1cn([C@@H]2O[C@@]3(COP(O)(=S)O[C@H]4[C@H]5OC[C@]4(COP(O)(=S)O[C@@H]4[C@H](O)[C@@H](COP(O)(=S)O[C@H]6[C@@H](O)[C@H](n7cnc8c(=O)[nH]c(N)nc87)O[C@@H]6COP(O)(=S)O[C@H]6[C@@H](O)[C@H](n7ccc(N)nc7=O)O[C@@H]6COP(O)(=S)O[C@H]6[C@@H](O)[C@H](n7ccc(N)nc7=O)O[C@@H]6COP(O)(=S)O[C@H]6C[C@H](n7cc(C)c(=O)[nH]c7=O)O[C@@H]6COP(O)(=S)O[C@H]6[C@@H](O)[C@H](n7ccc(N)nc7=O)O[C@@H]6COP(O)(=S)O[C@H]6C[C@H](n7cc(C)c(=O)[nH]c7=O)O[C@@H]6COP(O)(=S)O[C@H]6[C@@H](O)[C@H](n7cnc8c(=O)[nH]c(N)nc87)O[C@@H]6COP(O)(=S)O[C@H]6[C@@H](O)[C@H](n7cnc8c(=O)[nH]c(N)nc87)O[C@@H]6COP(O)(=S)O[C@H]6[C@@H](O)[C@H](n7cnc8c(N)ncnc87)O[C@@H]6COP(O)(=S)O[C@H]6[C@H]7OC[C@]6(COP(O)(=S)O[C@H]6[C@H]8OC[C@]6(COP(O)(=S)O[C@H]6[C@H]9OC[C@]6(CO)O[C@H]9n6cc(C)c(=O)[nH]c6=O)O[C@H]8n6cc(C)c(=O)[nH]c6=O)O[C@H]7n6cc(C)c(=O)[nH]c6=O)O[C@H]4n4cnc6c(N)ncnc64)O[C@H]5n4cc(C)c(=O)[nH]c4=O)CO[C@@H]2[C@@H]3O)c(=O)nc1N` (stereo partly specified), for which the outcome in the data set with Mus musculus [1] and in the data set on Mus musculus [2] was Active. Further, in the data set on Mus musculus [3], the Activity result is recorded as “Non-toxic”.
Regarding `Cc1cn([C@@H]2O[C@@]3(COP(O)(=S)O[C@H]4[C@H]5OC[C@]4(COP(O)(=S)O[C@@H]4[C@H](O)[C@@H](COP(O)(=S)O[C@H]6[C@@H](O)[C@H](n7cnc8c(=O)[nH]c(N)nc87)O[C@@H]6COP(O)(=S)O[C@H]6[C@@H](O)[C@H](n7ccc(N)nc7=O)O[C@@H]6COP(O)(=S)O[C@H]6[C@@H](O)[C@H](n7ccc(N)nc7=O)O[C@@H]6COP(O)(=S)O[C@H]6C[C@H](n7cc(C)c(=O)[nH]c7=O)O[C@@H]6COP(O)(=S)O[C@H]6[C@@H](O)[C@H](n7ccc(N)nc7=O)O[C@@H]6COP(O)(=S)O[C@H]6C[C@H](n7cc(C)c(=O)[nH]c7=O)O[C@@H]6COP(O)(=S)O[C@H]6[C@@H](O)[C@H](n7cnc8c(=O)[nH]c(N)nc87)O[C@@H]6COP(O)(=S)O[C@H]6[C@@H](O)[C@H](n7cnc8c(=O)[nH]c(N)nc87)O[C@@H]6COP(O)(=S)O[C@H]6[C@@H](O)[C@H](n7cnc8c(N)ncnc87)O[C@@H]6COP(O)(=S)O[C@H]6[C@H]7OC[C@]6(COP(O)(=S)O[C@H]6[C@H]8OC[C@]6(CO)O[C@H]8n6cc(C)c(=O)[nH]c6=O)O[C@H]7n6cc(C)c(=O)[nH]c6=O)O[C@H]4n4cnc6c(N)ncnc64)O[C@H]5n4cc(C)c(=O)[nH]c4=O)CO[C@@H]2[C@@H]3O)c(=O)nc1N` (stereo partly specified), the result in the data set on Mus musculus [1] and in the data set on Mus musculus [2] was Active. Also, in the data set with Mus musculus [3], the Activity result is given as “Non-toxic”.

The values above are taken from ChEMBL document CHEMBL1140861, “Short antisense oligonucleotides with novel 2'-4' conformationaly restricted nucleoside analogues show improved potency without increased toxicity in animals” (J Med Chem, 2009).
